Data on 79 compounds can be found in the METLIN SMRT retention time set (Domingo-Almenara et al. 2019).

The series in a line: gradient 5% acetonitrile 3 min, to 50% in 2 min, to 85% in 15 min, held 3 min, 100 µL/min. As to conditions: column: Zorbax Extend-C18 2.1 x 50 mm; eluents: water / acetonitrile, 0.1% formic acid. The method in brief: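 A Zorbax Extend-C18 column (2.1 × 50 mm, 1.8 μm) run at 100 μL/min with water and acetonitrile, both containing 0.1% formic acid, separated mixtures of ~100 pure standards. The HPLC was coupled to a quadrupole time-of-flight mass spectrometer operated in positive and negative ionization mode, with dead and dwell volumes of 40 μL and 900 μL. Each retention time was taken from a computationally picked adduct peak that was then manually inspected.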
`O=C1COc2ccccc2N1Cc1nc(-c2ccc(OC(F)(F)F)cc2)no1` displayed an RP-LC retention time of 1100 s.

`CCc1nc(N2CCC(C(=O)NCc3ccc(F)c(Cl)c3)CC2)c2c(C)scc2n1` yielded an RP-LC retention time of 1100 s.

Regarding `Cc1cnn(CCC(=O)N2CC(n3cc(COc4ccc(F)cc4)nn3)C2)c1`, the RP-LC retention time is 712 s.

The compound `CCCn1c(=O)c2cc(C(=O)NCCCc3ccccc3)nn2c2ccccc21` registered an RP-LC retention time of 1060 s.

For the compound `O=C(NCC(F)(F)F)C1CCN(Cc2noc(-c3ccc(F)cc3)n2)CC1`, the RP-LC retention time was found to be 642 s.

On to `Cn1ncc2c(N3CCSCC3)nc(C(=O)NCc3ccncc3)nc21`, for which the RP-LC retention time was 566 s.

Turning to `COC(=O)c1c(C)[nH]c(C(=O)N2CCC(CC(=O)NCc3ccccc3C)CC2)c1C`, the RP-LC retention time was found to be 749 s.

`Cc1ccn(-c2ccc(C(=O)Nc3ccccc3)cn2)n1` displayed an RP-LC retention time of 885 s.

The compound `O=C1c2oc3ccccc3c(=O)c2C(c2cccnc2)N1c1nccs1` (centres undefined) came in with an RP-LC retention time of 708 s.

Turning to `O=C(NCC1CCCCC1)c1cccc(CN2C(=O)C3CCCN3C(=O)c3ccccc32)c1` (centres undefined), the RP-LC retention time came to 846 s.

`O=C(NCCc1nc2cccnc2n1C1CCCC1)NCc1ccco1` returned an RP-LC retention time of 652 s.

Consider `O=C(CCCN1C(=O)CSc2ncccc21)N1CCN(c2ccccn2)CC1`, for which the RP-LC retention time was 559 s.

Compound `CCc1nc(-c2ccc(-c3noc(CNC(=O)c4ccc(C)cc4)n3)cc2)cs1` showed an RP-LC retention time of 1040 s.

Regarding `COc1ccc(CNC(=O)Cn2c(C(F)(F)F)nc3cc4c(cc32)OCCO4)cc1OC`, the RP-LC retention time was found to be 764 s.

Turning to `CCn1c(=O)c2cc(C(=O)NCc3cc(C)ccc3C)nn2c2ccccc21`, the RP-LC retention time came out at 930 s.

Turning to `COc1cccc(N2CCN(c3ccnc(SCC(=O)Nc4ccc(F)cc4F)n3)CC2)c1`, the RP-LC retention time came to 804 s.

`CCOC(=O)COc1cc(-c2ccc(F)cc2)nc2ccc(NC(=O)COC)cc12` yielded an RP-LC retention time of 730 s.

In the case of `Cc1cc(S(=O)(=O)N2CCN(C3CCN(CCC(C)C)C3=O)CC2)ccc1Cl` (centres undefined), the RP-LC retention time is 773 s.

Regarding `Cc1ccccc1Cn1nc2c(S(=O)(=O)N3CCc4ccccc4C3)cccn2c1=O`, the RP-LC retention time was found to be 987 s.

As to `CCCn1cc(C(=O)Nc2cc(OC)cc(OC)c2)c(=O)c2ccc(C)nc21`, the RP-LC retention time was determined as 1170 s.

On to `Cc1nc2cc(-c3noc(CNC(=O)c4ccccc4)n3)ccc2n(C)c1=O`, for which the RP-LC retention time turned out to be 718 s.

For the compound `Cc1ccc2c(c1)OCC(=O)N2Cc1nc(-c2ccc(Br)cc2)no1`, the RP-LC retention time was found to be 1180 s.

Regarding `CC1CN2C=NC(N3CCN(C(=O)Nc4ccc(Cl)cc4F)CC3)=CC2=N1` (centres undefined), the RP-LC retention time is 636 s.

In turn, `COc1cccc(C(O)CN2CCN(c3ccccn3)CC2)c1` (centres undefined) registered an RP-LC retention time of 554 s.

Regarding `Cc1ccc(-n2c(N3CCCC(C(=O)NCc4ccccc4C)C3)nc3ccsc3c2=O)cc1` (centres undefined), the RP-LC retention time amounted to 954 s.

The compound `O=C(Cn1nnc2ccccc2c1=O)N1CCN(c2ncccn2)CC1` came in with an RP-LC retention time of 629 s.

In turn, `Cn1ncc(N2CCCC(C(=O)NC3CCCCCCC3)C2)cc1=O` (centres undefined) yielded an RP-LC retention time of 751 s.

With `Cc1c(C2CCN(C(=O)Cc3ccc(F)cc3)CC2)noc1N`, the RP-LC retention time was found to be 698 s.

`Cc1nnc(C2CCCN(C(=O)CCc3c(C)noc3C)C2)s1` (centres undefined) showed an RP-LC retention time of 606 s.

Regarding `COc1ccc(-c2noc(C3CCCN3C(=O)Nc3ccccc3C)n2)cc1` (centres undefined), the RP-LC retention time worked out at 983 s.

The compound `CCOc1cc(C2c3c(oc4ccccc4c3=O)C(=O)N2CCCN(C)C)ccc1O` (centres undefined) yielded an RP-LC retention time of 989 s.

`C/C=C1\NC(=O)[C@H]2CSSCC/C=C/[C@H](CC(=O)N[C@H](C(C)C)C(=O)N2)OC(=O)C(C(C)C)NC1=O` (some centres undefined) had an RP-LC retention time of 808 s.

In turn, `CCc1nc(C2CCN(C(=O)C3(c4ccc(OC)cc4)CC3)CC2)n[nH]1` had an RP-LC retention time of 551 s.

Regarding `CN1C(=O)Cc2ccccc2C1C(=O)NCc1ccccc1F` (centres undefined), the RP-LC retention time came to 713 s.

`O=c1ccc(-c2ccc3c(c2)OCO3)nn1CCc1nc(-c2ccc(Cl)cc2)no1` had an RP-LC retention time of 1040 s.

As for `COc1cccc(C(=O)N2CCC(C(=O)NCc3csc(-c4cccs4)n3)CC2)c1`, the RP-LC retention time turned out to be 769 s.

In the case of `O=C(NCc1cccc(F)c1)N1CCC(OC2CCN(Cc3ccccc3)CC2)CC1`, the RP-LC retention time came to 589 s.

As to `Cc1noc(C)c1-c1ccc(S(=O)(=O)Nc2ccccc2)cc1`, the RP-LC retention time stood at 912 s.

As for `C(#Cc1ccccc1)CN1CCN(c2ccccn2)CC1`, the RP-LC retention time was 553 s.

`Cc1cc(C(=O)NCCCc2ccccc2)c2c(=O)n(C)c(=O)n(C)c2n1` returned an RP-LC retention time of 750 s.

Take `COc1cccc(N2CCN(C(=O)C3CC(=O)N(c4ccc5oc(C)nc5c4)C3)CC2)c1` (centres undefined): the RP-LC retention time was 752 s.

Turning to `c1cc(-c2cnn3cc(-c4ccc(OCCN5CCCCC5)cc4)cnc23)ccn1`, the RP-LC retention time worked out at 584 s.

In turn, `CC(C)CN(Cc1ccccc1)Cc1cc(=O)n2cc(Cl)ccc2n1` returned an RP-LC retention time of 686 s.

`O=C(c1[nH]nc2c1CCc1ccccc1-2)N1CCC(c2noc(-c3cccnc3)n2)C1` (centres undefined) had an RP-LC retention time of 776 s.

Consider `O=C(CN1CCc2ccccc2C1C(=O)N1CCCCC1)NCc1ccc(F)c(Cl)c1` (centres undefined), for which the RP-LC retention time came out at 936 s.

In the case of `CC1(C)C(=O)NCCN1C(=O)c1cccc(C(F)(F)F)c1`, the RP-LC retention time is 662 s.

The compound `COc1ccc(-c2ncc3c(=O)n(CC(=O)Nc4ccc(OC)c(OC)c4)cnc3n2)cc1` came in with an RP-LC retention time of 750 s.

In the case of `CCc1ccc(Oc2nccnc2N2CCC(C(=O)NC(C)c3ccccc3)CC2)cc1` (centres undefined), the RP-LC retention time was determined as 1120 s.

`CCCN1CCN(C(=O)CCc2c(C)c(C(=O)OCC)c(C)n2CC)CC1`: the RP-LC retention time came to 645 s.

Turning to `C[C@@H]1O[C@@H](OC2O[C@@H](COc3cc(O)c4c(=O)cc(-c5ccc(O)cc5)oc4c3)[C@@H](O)[C@@H](O)[C@@H]2O)[C@H](O)[C@H](O)[C@H]1O` (some centres undefined), the RP-LC retention time turned out to be 671 s.

With `COc1ccc(-c2cc3c4nn(CC(=O)NC(C)C)c(=O)n4ccn3n2)cc1`, the RP-LC retention time came to 758 s.

Take `Cc1nn(C(C)C(=O)NC2CCCCC2)c(=O)c2c(C)n(-c3ccccc3)nc12` (centres undefined): the RP-LC retention time turned out to be 946 s.

`CC(NC(=O)Cc1cccc(F)c1)C(=O)Nc1nc2ccccc2[nH]1` (centres undefined) showed an RP-LC retention time of 640 s.

As to `Cc1cccc(OCc2nnc(SCC(=O)Nc3nc(-c4ccccc4)c(C)s3)o2)c1`, the RP-LC retention time was 932 s.

The compound `O=c1cc(-c2ccncc2)nc(N2CCCC2)n1Cc1ccccc1F` had an RP-LC retention time of 1220 s.

In the case of `C#CCOCC(O)CN1CCN(c2cc(Cl)ccc2C)CC1` (centres undefined), the RP-LC retention time stood at 577 s.

In turn, `Cc1ccc(NC(=O)CSc2nnc3c4cc(-c5ccc(F)cc5)nn4ccn23)cc1Cl` came in with an RP-LC retention time of 1010 s.

For `COc1ccc(Nc2c(-c3ccccc3)nc3cnc(Br)cn23)cc1OC`, the RP-LC retention time turned out to be 856 s.

`O=C(NCC1CCOCC1)Nc1ccccc1` yielded an RP-LC retention time of 656 s.

In turn, `COc1ccc(N2CCN(c3cc(SCC(=O)Nc4cccc(Cl)c4C)ncn3)CC2)cc1` registered an RP-LC retention time of 1060 s.

`Cc1ccc(CNC(=O)C2CCN(S(=O)(=O)c3cn(C)cn3)CC2)cc1` displayed an RP-LC retention time of 732 s.

As to `O=C(CN1CCC2(CC1)N=C(c1ccc(F)cc1)C(=O)N2)Nc1ccc(F)cc1F`, the RP-LC retention time came out at 666 s.

For `Cc1[nH]c(C(=O)Nc2ccc(F)c(Cl)c2)c(C)c1S(=O)(=O)N1CCCCC1`, the RP-LC retention time is 1020 s.

`Cc1nn(-c2ccc(F)cc2)c2sc(C(=O)NCCc3ccco3)cc12` had an RP-LC retention time of 1060 s.

`CCOC(=O)Cc1csc(NC(=O)CSc2nc(C)cc(C)n2)n1` gave an RP-LC retention time of 728 s.

On to `CCOC(=O)Cc1csc(NC(=O)c2cc3cc([N+](=O)[O-])ccc3s2)n1`, for which the RP-LC retention time was found to be 925 s.

As to `O=C(c1cccnc1)N1CCCN(c2nnc3ccc(Cl)cn23)CC1`, the RP-LC retention time is 559 s.

Regarding `Cc1sc2cc(C(=O)N3CCN(c4ccccn4)CC3)[nH]c2c1CN1CCOCC1`, the RP-LC retention time was 568 s.

Compound `COc1ccc(-c2ccc(CNCC3CCNCC3)o2)cc1Cl` came in with an RP-LC retention time of 579 s.

`O=C(NCc1ccc(F)cc1Cl)c1cc(C2CC2)n2nccc2n1` displayed an RP-LC retention time of 1010 s.

`O=C(CCNc1c(-c2ccc(F)cc2)nc2cnccn12)Nc1ccc2c(c1)OCO2` had an RP-LC retention time of 727 s.

Compound `Cc1nc(N2CCCC(C(=O)NC(C)C)C2)c2c(C)c(C)oc2n1` (centres undefined) gave an RP-LC retention time of 712 s.

`CC1=C(C(=O)OCCC#N)C(c2ccccc2F)NC(=O)N1` (centres undefined): the RP-LC retention time was determined as 645 s.

`COCCN1CC2(CCN(S(=O)(=O)c3ccc(Cl)cc3C)CC2)C1c1ccccc1` (centres undefined) returned an RP-LC retention time of 779 s.

Compound `COc1ccc(Br)cc1CNC(=O)CCC(=O)N1CCSc2nc(C)cc(C)c21` displayed an RP-LC retention time of 725 s.

`Cc1c(F)cccc1NS(=O)(=O)c1cc(-c2nc(C(C)(C)C)cs2)cs1` had an RP-LC retention time of 1310 s.

For `COc1ncccc1CNC(=O)CCc1c(C)noc1C`, the RP-LC retention time worked out at 556 s.

`Cc1cc(C(=O)NCC2CCN(C(=O)NC(C)(C)C)CC2)no1` returned an RP-LC retention time of 649 s.

The compound `COc1ccccc1-c1noc(CCn2nc(-c3ccccc3)ccc2=O)n1` registered an RP-LC retention time of 817 s.
